Measured values taken from patent US9908890B2, “Selective inhibitors of constitutive androstane receptor” (ST. JUDE CHILDREN'S RESEARCH HOSPITAL, priority 2014, dated 2018).
Several values for one entry are separate records, joined by “and”; a condition that tells them apart may be missing. Equal entries are not always repeated. Where two headings read alike, the source gives them in different places.

Target: T1, GST-hCAR-LBD (Homo sapiens, UniProt Q14994)
T1 construct: purchased Life Technologies (Carlsbad, Calif.) or Invitrogen (Carlsbad, Calif.)
T1 sequence (Q14994 109-352 limits assumed): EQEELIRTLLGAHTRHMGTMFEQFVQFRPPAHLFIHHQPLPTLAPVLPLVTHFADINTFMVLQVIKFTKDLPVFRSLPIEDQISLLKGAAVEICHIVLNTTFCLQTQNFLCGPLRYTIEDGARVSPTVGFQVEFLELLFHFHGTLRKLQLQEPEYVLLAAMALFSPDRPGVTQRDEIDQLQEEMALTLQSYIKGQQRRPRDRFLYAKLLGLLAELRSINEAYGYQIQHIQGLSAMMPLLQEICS
Assay: CoAct binding inverse agonist assay (LanthaScreen TR-FRET, fluorescent PGC-1α coactivator recruitment/repression)
Assay type: biochemical
Conditions: for inhibition at 70 µM: 70 μM compound, 42 μM clotrimazole = 100%, DMSO = 0%, read-out: % Inhibition (70 μM); for fold increase of CAR inverse agonistic activity (potency) over lead chemical 1 (CINPA1) / fold increase of IC50 (decrease of activity) relative to lead chemical 1 (CINPA1): relative to chemical 1
Description: The effect of putative CAR ligands on the recruitment or repression of PGC-1α binding to hCAR was evaluated by using a LanthaScreen TR-FRET assay according to the manufacturer's instructions. […] The final DMSO concentration was 0.7% in all assay wells. […] The % Inhibition values were then plotted for individual chemicals. When applicable, the graphic software GraphPad Prism 5.04 (GraphPad Software, La Jolla, Calif., USA) was used to fit the data into a one-site competitive-binding equation to derive IC50 values. […] The assay plates were then briefly spun down and incubated for 1 hour at room temperature (25° C.). […] The final DMSO concentration was 0.7% in all assay wells. […] The % Inhibition values were then plotted for individual chemicals. When applicable, the graphic software GraphPad Prism 5.04 (GraphPad Software, La Jolla, Calif., USA) was used to fit the data into a one-site competitive-binding equation to derive IC50 values.

[1] = read-out: IC50 (CAR inverse agonistic activity)
[2] = Table 6, CINPA1 and commercially available analogs, read-out: IC50

| SMILES | IC50 [1] | IC50 (Table 4, read-out: IC50) [nM] | also measured |
| --- | --- | --- | --- |
| CCOC(=O)Nc1ccc2c(c1)N(C(=O)Cn1cccc1)c1ccccc1CC2 [Compound 16, ethyl (5-(2-(1H-pyrrol-1-yl)acetyl)-10,11-dihydro-5H-dibenzo[b,f]azepin-3-yl)carbamate] | 37 nM |  | inhibition at 70 µM: 121%; fold increase of CAR inverse agonistic activity (potency) over lead chemical 1 (CINPA1): 19 fold; fold more potent than chemical 13 (relative to chemical 13): 43 fold |
| CCOC(=O)Nc1ccc2c(c1)N(C(=O)CCN1CCOCC1)c1ccccc1CC2 [compound 85] | 320 nM |  |  |
| CCN(CC)CC(=O)N1c2ccccc2CCc2ccc(NC(=O)NC(C)C)cc21 [Compound 6, 1-(5-(diethylglycyl)-10,11-dihydro-5H-dibenzo[b,f]azepin-3-yl)-3-isopropylurea] | 4930 nM |  | inhibition at 70 µM: 107% |
| CC(C)OC(=O)Nc1ccc2c(c1)N(C(=O)COC1COC1)c1ccccc1CC2 [Compound 49] |  | 660 |  |
| O=C(Nc1ccc2c(c1)N(C(=O)n1cccc1)c1ccccc1CC2)OC1CCCCC1 [Compound 58] |  | 14 |  |
| CCN(CC)CC(=O)N1c2ccccc2CCc2ccc(NC(=O)NC(C)(C)C)cc21 [Compound 7, 1-(tert-butyl)-3-(5-(diethylglycyl)-10,11-dihydro-5H-dibenzo[b,f]azepin-3-yl)urea] | 13000 nM |  | inhibition at 70 µM: 101% |
| CC(C)OC(=O)Nc1ccc2c(c1)N(C(=O)COC1CCCC1)c1ccccc1CC2 [Compound 35, isopropyl (5-(2-(cyclopentyloxy)acetyl)-10,11-dihydro-5H-dibenzo[b,f]azepin-3-yl)carbamate] | 20 nM |  |  |
| CCOC(=O)Nc1ccc2c(c1)N(C(=O)CN1C(=O)C=CC1=O)c1ccccc1CC2 [Compound 15, ethyl (5-(2-(2,5-dioxo-2,5-dihydro-1H-pyrrol-1-yl)acetyl)-10,11-dihydro-5H-dibenzo[b,f]azepin-3-yl)carbamate] | 39800 nM |  | inhibition at 70 µM: 76%; fold IC50 relative to chemical 13 (relative to chemical 13): 25 fold |
| CCOC(=O)Nc1ccc2c(c1)N(C(=O)CCN(CC)CC)c1ccccc1CC2 [Compound 22, ethyl (5-(3-(diethylamino)propanoyl)-10,11-dihydro-5H-dibenzo[b,f]azepin-3-yl)carbamate] | 2430 nM |  | inhibition at 70 µM: 119%; fold increase of IC50 (decrease of activity) relative to lead chemical 1 (CINPA1): 3.5 fold |
| CCCN(CCC)CC(=O)N1c2ccccc2CCc2ccc(NC(=O)OC(C)(C)C)cc21 [Compound 37, tert-butyl (5-(dipropylglycyl)-10,11-dihydro-5H-dibenzo[b,f]azepin-3-yl)carbamate] | 150 nM | 153 |  |
| CCOC(=O)Nc1ccc2c(c1)N(C(=O)CN(CC)CC)c1ccccc1CC2 [1 (CINPA1)] |  |  | IC50 [2]: 690 nM |
| CC(C)OCC(=O)N1c2ccccc2CCc2ccc(NC(=O)OC(C)(C)C)cc21 [Compound 39, tert-butyl (5-(2-isopropoxyacetyl)-10,11-dihydro-5H-dibenzo[b,f]azepin-3-yl)carbamate] | 120 nM |  |  |
| CC(C)OC(=O)Nc1ccc2c(c1)N(C(=O)c1ccco1)c1ccccc1CC2 [Compound 65] |  | 75 |  |
| O=C(Nc1ccc2c(c1)N(C(=O)Cn1cccc1)c1ccccc1CC2)OC1CC1 [Compound 41, cyclopropyl (5-(2-(1H-pyrrol-1-yl)acetyl)-10,11-dihydro-5H-dibenzo[b,f]azepin-3-yl)carbamate] | 22 nM |  |  |
| CCCC(=O)Nc1ccc2c(c1)N(C(=O)CN(CC)CC)c1ccccc1CC2 [Compound 2, N-(5-(diethylglycyl)-10,11-dihydro-5H-dibenzo[b,f]azepin-3-yl)butyramide] |  |  | inhibition at 70 µM: 106%; IC50 (quoted in SAR text in nM, read-out: IC50 (CAR inverse agonistic activity)): 2320 nM |
| O=C(Nc1ccc2c(c1)N(C(=O)c1ccco1)c1ccccc1CC2)OC1CCCCC1 [Compound 69] |  | 50 |  |
| CC(C)OC(=O)Nc1ccc2c(c1)N(C(=O)Cc1ccco1)c1ccccc1CC2 [Compound 63] |  | 37 |  |
| CC(C)OC(=O)Nc1ccc2c(c1)N(C(=O)COC1CCCCC1)c1ccccc1CC2 [Compound 36, isopropyl (5-(2-(cyclohexyloxy)acetyl)-10,11-dihydro-5H-dibenzo[b,f]azepin-3-yl)carbamate] | 24 nM |  |  |
| CCOC(=O)Nc1ccc2c(c1)N(C(=O)CN1C(C)(C)CCCC1(C)C)c1ccccc1CC2 [Compound 14, ethyl (5-(2-(2,2,6,6-tetramethylpiperidin-1-yl)acetyl)-10,11-dihydro-5H-dibenzo[b,f]azepin-3-yl)carbamate] | 4080 nM |  | inhibition at 70 µM: 90.5%; fold IC50 relative to chemical 18 (relative to chemical 18): over 6 fold |
| O=C(Nc1ccc2c(c1)N(C(=O)COC1CCCC1)c1ccccc1CC2)OC1CCCCC1 [Compound 51] |  | 65 |  |
| CCOC(=O)Nc1ccc2c(c1)N(C(=O)CN(CC)CC)c1ccccc1CC2 [Compound 1, ethyl (5-(diethylglycyl)-10,11-dihydro-5H-dibenzo[b,f]azepin-3-yl)carbamate] | 690 nM | 690 | inhibition at 70 µM: 116% |

| SMILES | IC50 [1] | IC50 (Table 4, read-out: IC50) [nM] | also measured |
| --- | --- | --- | --- |
| O=C(Nc1ccc2c(c1)N(C(=O)N1CCCCC1)c1ccccc1CC2)OC1CCCCC1 [Compound 59] |  | 150 |  |
| O=C(Cn1cccc1)N1c2ccccc2CCc2ccc(NC(=O)n3cccc3)cc21 [Compound 46] |  | 81 |  |
| CCCN(CCC)CC(=O)N1c2ccccc2CCc2ccc(NC(=O)OC(C)C)cc21 [Compound 28, isopropyl (5-(dipropylglycyl)-10,11-dihydro-5H-dibenzo[b,f]azepin-3-yl)carbamate] | 120 nM |  |  |
| CCN(CC)CCC(=O)N1c2ccccc2CCc2ccc(NC(=O)OC(C)C)cc21 [Compound 25, isopropyl (5-(3-(diethylamino)propanoyl)-10,11-dihydro-5H-Dibenzo[b,f]azepin-3-yl)carbamate] | 6400 nM |  |  |
| CCNCC(=O)N1c2ccccc2CCc2ccc(N)cc21 [Compound 72] |  |  | inhibition at 70 µM: 27% |
| COC(=O)Nc1ccc2c(c1)N(C(=O)CCN1CCOCC1)c1ccccc1CC2 [compound 87] | 290 nM |  |  |
| CCOC(=O)Nc1ccc2c(c1)N(C(=O)CCN(C)C)c1ccccc1CC2 [compound 86] | 5010 nM |  |  |
| CCOCC(=O)N1c2ccccc2CCc2ccc(NC(=O)OC(C)C)cc21 [Compound 29, isopropyl (5-(2-ethoxyacetyl)-10,11-dihydro-5H-dibenzo[b,f]azepin-3-yl)carbamate] | 11400 nM |  |  |
| CC(C)(C)COC(=O)N1c2ccccc2CCc2ccc(NC(=O)OC3CCCCC3)cc21 [Compound 61] |  | 41 |  |
| CC(C)OC(=O)Nc1ccc2c(c1)N(C(=O)OCC(C)(C)C)c1ccccc1CC2 [Compound 57] |  | 25 |  |
| Clc1ccccc1C(c1ccccc1)(c1ccccc1)n1ccnc1 [Clotrimazole, reference compound] |  |  | inhibition at 42 µM (42 μM clotrimazole, positive control): 100% |
| CCOC(=O)Nc1ccc2c(c1)N(C(=O)CN(C(C)C)C(C)C)c1ccccc1CC2 [Compound 12, ethyl (5-(diisopropylglycyl)-10,11-dihydro-5H-dibenzo[b,f]azepin-3-yl)carbamate] |  | 3050 | inhibition at 70 µM: 110%; fold increase of IC50 (decrease of activity) relative to lead chemical 1 (CINPA1): more than 4 fold |
| CC(C)OC(=O)Nc1ccc2c(c1)N(C(=O)CN1CCCCC1)c1ccccc1CC2 [Compound 27, isopropyl (5-(2-(piperidin-1-yl)acetyl)-10,11-dihydro-5H-dibenzo[b,f]azepin-3-yl)carbamate] | 250 nM |  |  |
| CCOC(=O)Nc1ccc2c(c1)N(C(=O)CNC(C)(C)CC)c1ccccc1CC2 [Compound 21, ethyl (5-(tert-pentylglycyl)-10,11-dihydro-5H-dibenzo[b,f]azepin-3-yl)carbamate] | 2060 nM |  | inhibition at 70 µM: 116%; fold increase of IC50 (decrease of activity) relative to lead chemical 1 (CINPA1): 3 fold |
| CC(C)OCC(=O)N1c2ccccc2CCc2ccc(NC(=O)OC(C)C)cc21 [Compound 30, isopropyl (5-(2-isopropoxyacetyl)-10,11-dihydro-5H-dibenzo[b,f]azepin-3-yl)carbamate] | 60 nM |  |  |
| CC(C)OC(=O)Nc1ccc2c(c1)N(C(=O)CCN1CCN(CCO)CC1)c1ccccc1CC2 [compound 88] | > 70000 nM |  | IC50 [2]: > 70000 nM |
| O=C(Nc1ccc2c(c1)N(C(=O)Cn1cccc1)c1ccccc1CC2)N1CCCCC1 [Compound 47] |  | 99 |  |
| CC(C)OC(=O)Nc1ccc2c(c1)N(C(=O)Cn1cccc1)c1ccccc1CC2 [Compound 26, isopropyl (5-(2-(1H-pyrrol-1-yl)acetyl)-10,11-dihydro-5H-dibenzo[b,f]azepin-3-yl)carbamate] | 21 nM and 22 nM |  | fold increase of CAR inverse agonistic activity (potency) over lead chemical 1 (CINPA1): 32.8 fold |
| CCC(C)OCC(=O)N1c2ccccc2CCc2ccc(NC(=O)OC(C)C)cc21 (centres unmarked) [Compound 31, isopropyl (5-(2-(sec-butoxy)acetyl)-10,11-dihydro-5H-dibenzo[b,f]azepin-3-yl)carbamate] | 35 nM |  |  |
| CC(C)OC(=O)Nc1ccc2c(c1)N(C(=O)COC1CC1)c1ccccc1CC2 [Compound 33, isopropyl (5-(2-cyclopropoxyacetyl)-10,11-dihydro-5H-dibenzo[b,f]azepin-3-yl)carbamate] | 82 nM |  |  |
